US20240166641A1, “HETEROCYCLES AND USES THEREOF” (Kumquat Biosciences Inc., priority 2021, published 2024)

Legend:
PTPN2 = target: T1, PTPN2 (Homo sapiens, UniProt P17706); test: Phosphatase activity assay (Bio-Biochem-DiFMUP), PTPN2; format: biochemical; conditions: DiFMUP substrate, room temperature
T1 sequence (P17706 1-415): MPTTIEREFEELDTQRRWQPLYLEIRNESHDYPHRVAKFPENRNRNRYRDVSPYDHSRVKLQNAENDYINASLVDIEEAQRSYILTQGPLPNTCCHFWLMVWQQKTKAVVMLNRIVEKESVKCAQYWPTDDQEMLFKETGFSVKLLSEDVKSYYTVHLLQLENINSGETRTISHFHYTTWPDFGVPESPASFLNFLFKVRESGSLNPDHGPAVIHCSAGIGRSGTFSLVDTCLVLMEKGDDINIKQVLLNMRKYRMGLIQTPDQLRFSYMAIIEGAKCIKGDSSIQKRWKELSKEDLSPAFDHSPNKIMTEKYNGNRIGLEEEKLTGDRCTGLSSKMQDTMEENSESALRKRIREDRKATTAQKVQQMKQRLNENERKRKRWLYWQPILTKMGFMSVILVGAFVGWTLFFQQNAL
Description: (§1) The selectivity and potency of a small molecule PTPN2 inhibitor as provided herein (e.g., a derivative of Formula I, II, III, IV; or sub-formulae thereof) against one or more protein tyrosine phosphatase (PTP) enzymes, and specifically against PTPN2, can be assessed in various ways. The one or more PTP enzymes comprise Mycobacterium protein tyrosine phosphatase A (mPTPA), Mycobacterium protein tyrosine phosphatase B (mPTPB), PTPN1 (i.e., PTP1B), PTPN2 (i.e., TC-PTP), SHP-1, SHP-2, FAP-1, Meg2, HePTP, Laforin, VHX, VHR, LMWPTP, Cdcl4A, LAR, CD45, PTPRG, a fragment thereof, a variant thereof, and a combination thereof. Selectivity and potency of a small molecule PTPN2 inhibitor is evaluated using a PTP activity inhibition assay. The assay is performed using a buffer comprising 50 millimolar (mM) Bis-Tris (pH=6.3), 2 mM EDTA, and 5 mM N,N′-dimethyl-N,N′-bis(mercaptoacetyl)hydrazine (DMH). The assay is performed using a phosphated substrate, e.g., 10 mM fluorescein diphosphate (FDP) that is stored at −20° C. Alternatively or in addition to, the assay is performed using 10 mM DiFMUP as a phosphated substrate. Each PTP enzyme is diluted in an enzyme dilution buffer comprising 50 mM Bis-Tris (pH=6.3), 2 mM EDTA, 5 mM DMH, 20% (vol./vol.) glycerol, and 0.01% (vol./vol.) Triton X-100.
(§2) The assay is carried out at room temperature in 96 well plates. A reaction mixture of 170 microliter (μL) of the assay buffer comprising 10 μM FDP or DiFMIUP is added to each well. A 10 μL volume of (i) a compound disclosed herein (e.g., PTPN2 inhibitor) dissolved in DMSO at one of 10 concentrations from a serial dilution or (ii) DMSO alone for control is added to each well. The reaction is initiated by adding 20 μL of a PTP enzyme (e.g., PTPN2) that is diluted in the enzyme dilution buffer. The phosphatase activity of the PTP enzyme is assessed by monitoring appearance of a fluorescent product (e.g., fluorescein monophosphate (FMP) from FDP, or 6,8-difluoro-7-hydroxyl-4-coumarin (DiFMU) from DiFMUP) continuously for about 15 to 30 minutes, using the SpectraMax® Gemini™ XPS Microplate Spectrofluorometer (Molecular Devices®) with excitation of 440 nm and emission at 530 nm (cutoff filter at 525 nm) for FMP and excitation at 360 nm and emission at 450 nm (cutoff filter at 435 nm) for DiFMU. The rate (e.g., the initial rate) of FMP or DiFMU formation is plotted against the concentration of the small molecule PTPN2 inhibitor, and the data is fitted (e.g., using a 4-parameter equation) to determine the inflection point of the fit as the IC50 of the small molecule PTPN2 inhibitor for a specific enzyme. Table 6 summarizes the IC50 values of compounds disclosed herein against PTPN2 and PTPN1.

PTP1B = target: T2, PTP1B (Homo sapiens, UniProt P18031); test: Phosphatase activity assay (Bio-Biochem-DiFMUP), PTP1B; format: biochemical; conditions: DiFMUP substrate, room temperature
T2 sequence (P18031 1-435): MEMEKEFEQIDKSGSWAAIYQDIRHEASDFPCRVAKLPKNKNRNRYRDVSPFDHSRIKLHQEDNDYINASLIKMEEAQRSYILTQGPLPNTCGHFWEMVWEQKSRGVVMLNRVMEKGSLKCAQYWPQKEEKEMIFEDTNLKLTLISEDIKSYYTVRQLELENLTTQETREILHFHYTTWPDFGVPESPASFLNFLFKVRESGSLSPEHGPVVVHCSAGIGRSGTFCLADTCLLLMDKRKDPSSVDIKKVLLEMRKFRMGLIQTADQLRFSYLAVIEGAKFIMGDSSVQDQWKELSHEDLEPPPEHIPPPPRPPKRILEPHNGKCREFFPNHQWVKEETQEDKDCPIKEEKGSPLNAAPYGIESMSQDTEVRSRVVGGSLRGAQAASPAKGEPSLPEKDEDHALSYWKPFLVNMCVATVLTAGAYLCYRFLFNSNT
Description: as §1, §2

| SMILES | IC50 (PTPN2) [µM] | IC50 (PTP1B) [µM] |
| --- | --- | --- |
| COc1cc2c(cc1N1CC(=O)NS1(=O)=O)C(=O)N(C)CC2 [Compound 101] | > 10 | > 10 |
| COC(=O)c1cc2cc(N3CC(=O)NS3(=O)=O)c(OC)cc2s1 [Compound 102, methyl 5-(1,1-dioxido-4-oxo-1,2,5-thiadiazolidin-2-yl)-6-methoxybenzo[b]thiophene-2-carboxylate] | > 10 | > 10 |
| COC(=O)c1cc2cc(N3CC(=O)NS3(=O)=O)c(O)cc2s1 [Compound 103] | 1 to 10 | 1 to 10 |
| CN1CCc2cc(O)c(N3CC(=O)NS3(=O)=O)cc2C1=O [Compound 104] | > 10 | > 10 |
| CC(C)CCCN1CCc2cc(O)c(N3CC(=O)NS3(=O)=O)cc2C1=O [Compound 105] | 1 to 10 | > 10 |
| CC(C)CCNc1ccc2cc(O)c(C3=CC(=O)NS3(=O)=O)cc2n1 [Compound 106, 5-(6-hydroxy-2-(isopentylamino)quinolin-7-yl)isothiazol-3(2H)-one 1,1-dioxide] | 1 to 10 | ≤ 1 |
| O=C1C=C(c2cc3cc(Cl)cnc3cc2O)S(=O)(=O)N1 [Compound 107] | > 10 | 1 to 10 |
| CC(C)CCN1Cc2cc(C3=CC(=O)NS3(=O)=O)c(O)cc2N(C)C1=O [Compound 108, 5-(7-hydroxy-3-isopentyl-1-methyl-2-oxo-1,2,3,4-tetrahydroquinazolin-6-yl)isothiazol-3(2H)-one 1,1-dioxide] | > 10 | > 10 |
| CC(C)CCNc1ccc2cc(O)c(C3CC(=O)NS3(=O)=O)cc2n1 (centres unmarked) [Compound 109] | > 10 | 1 to 10 |
| CC(C)CCN1Cc2cc(C3=CC(=O)NS3(=O)=O)c(O)cc2CC1=O [Compound 110] | 1 to 10 | 1 to 10 |
| CC(C)CCN1Cc2cc(C3CC(=O)NS3(=O)=O)c(O)cc2N(C)C1=O (centres unmarked) [Compound 111, 5-(7-hydroxy-3-isopentyl-1-methyl-2-oxo-1,2,3,4-tetrahydroquinazolin-6-yl)isothiazolidin-3-one 1,1-dioxide] | > 10 | > 10 |
| CC(C)CCN1Cc2cc(C3CC(=O)NS3(=O)=O)c(O)cc2CC1=O (centres unmarked) [Compound 112] | > 10 | > 10 |
| CN1CC=C(c2cnc3cc(O)c(C4=CC(=O)NS4(=O)=O)cc3c2)CC1 [Compound 114] | > 10 | > 10 |
| O=C1C=C(c2cc3cc(-c4cccnc4)cnc3cc2O)S(=O)(=O)N1 [Compound 115, 5-(7-hydroxy-3-(pyridin-3-yl)quinolin-6-yl)isothiazol-3(2H)-one 1,1-dioxide] | > 10 | 1 to 10 |
| CC(C)CCN1Cc2cc(N3CC(=O)NS3(=O)=O)c(O)cc2N(C)C1=O [Compound 116] | 1 to 10 | ≤ 1 |
| O=C1CN(c2cc3nc(NCCc4ccccc4)ccc3cc2O)S(=O)(=O)N1 [Compound 118] | ≤ 1 | ≤ 1 |
| CC(C)CCN1Cc2cc(N3CC(=O)NS3(=O)=O)c(O)cc2CC1=O [Compound 119, 5-(6-hydroxy-2-isopentyl-3-oxo-1,2,3,4-tetrahydroisoquinolin-7-yl)-1,2,5-thiadiazolidin-3-one 1,1-dioxide] | ≤ 1 | ≤ 1 |
| CC(C)CCN(C)c1ccc2cc(O)c(N3CC(=O)NS3(=O)=O)cc2n1 [Compound 121] | 1 to 10 | 1 to 10 |
| CC(C)CN(C)Cc1cc(=O)n2cc(O)c(C3=CC(=O)NS3(=O)=O)cc2c1 [Compound 122] | > 10 | > 10 |
| Cn1c(=O)c(NCCc2ccccc2)cc2cc(N3CC(=O)NS3(=O)=O)c(O)cc21 [Compound 123, 5-(7-hydroxy-1-methyl-2-oxo-3-(phenethylamino)-1,2-dihydroquinolin-6-yl)-1,2,5-thiadiazolidin-3-one 1,1-dioxide] | ≤ 1 | ≤ 1 |
| COc1ccc2cc(O)c(N3CC(=O)NS3(=O)=O)cc2n1 [Compound 124] | ≤ 1 | ≤ 1 |
| O=C1CN(c2c(O)cc3ccc(NCCc4ccccc4)nc3c2F)S(=O)(=O)N1 [Compound 125] | ≤ 1 | ≤ 1 |
